Test results as given in patent publication US20040254125A1, “Anthelmintic composition” (priority 2001, published 2004).

Columns and labels:
Format in all cases: in vivo
mites = test: Spot-on Test (Extermination Test on Mites) in dogs; settings: dogs naturally infected; spot-on to back of neck, 5 mg/kg of Reference Example 1 (10 g : 3.8 g fipronil per 100 ml); examined three days after administration
Description: Compound (10 g) of Reference Example 1 and fipronil (3.8 g) were mixed. This mixture was dissolved in a mixed solvent (9:1) of benzyl alcohol and propylene carbonate so as to be a total volume of 100 ml, and 0.05% of BHT was further added to prepare a formulation for the spot-on test. Further, as a control, formulations were prepared by using each of the compound of Reference Example 1 solo and fipronil solo to carry out the test.
The above-described formulation for spot-on test was dropped to the back part of the neck of each dog (two dogs in each test location) naturally infected with mites at a dose of 5 mg/kg of the compound in Reference Example 1. In each dog, infection with mites was examined three days after the dropwise administration.

Toxocara canis = test: Oral Test in dogs naturally infected with Toxocara canis; settings: single oral dose in gelatine capsule (Reference Example 1 5 mg/kg, praziquantel 1.25 mg/kg), postmortem on 10th day
Description: (§1) Compound (5 mg/kg) of Reference Example 1 and praziquantel (1.25 mg/kg) were encapsulated into gelatine to a predetermined amount to prepare a formulation for Oral Test. Incidentally, formulations were prepared as controls by using each of the compound of Reference Example 1 solo and fipronil solo to carry out the test.
(§2) The formulation was administered orally once to dogs (two dogs in each test location) naturally infected with Dipylidium caninum and Toxocara canis. Incidentally, the infection with Dipylidium caninum was confirmed by the excretion of proglottid of Dipylidium caninum into faeces three days before administration of drugs. The infection with Toxocara canis was confirmed by the excretion of eggs of Toxocara canis into faeces immediately before administration of drugs. On the 10th day after the administration of drugs, the dogs were subjected to postmortem to count the number of surviving Dipylidium caninum and Toxocara canis.

Dipylidium caninum = test: Oral Test in dogs naturally infected with Dipylidium caninum; settings: single oral dose in gelatine capsule (Reference Example 1 5 mg/kg, praziquantel 1.25 mg/kg), postmortem on 10th day
Description: as §1, §2

Molecule	treating infection with mites (mites)	exterminating Toxocara canis (number of surviving parasites at postmortem) (Toxocara canis)	exterminating Dipylidium caninum (number of surviving parasites at postmortem) (Dipylidium caninum)
N#Cc1nn(-c2c(Cl)cc(C(F)(F)F)cc2Cl)c(N)c1[S+]([O-])C(F)(F)F (stereo not drawn) [fipronil]	ineffective	–	–
13-[1-(4-methoxyacetylaminophenyl) cyclopentanecarbonyloxy]-5-hydroxy-milbemycin A4 [Reference Example 1]	ineffective	effective	ineffective
O=C(C1CCCCC1)N1CC(=O)N2CCc3ccccc3C2C1 (stereo not drawn) [praziquantels, praziquantel]	–	ineffective	effective
